Assay results: patent publication US20050074879A1, “Antisense oligonucleotide modulation of STAT3 expression” (priority 2000, published 2005)

Experiments:
Assay type in all cases: cell-based
[1] = tested on: Human STAT3 mRNA; assay: Human STAT3 mRNA dose response in A549 cells, real-time PCR with PPS 199 (Table 20); settings: 16 hours, LIPOFECTIN, − decrease, + increase relative to untreated control cells
Method: An additional dose-response experiment was preformed in A549 cells. A549 cells were treated with 18.75, 37.5, 75, or 150 nM of oligonucleotide mixed with 3 ug/mL LIPOFECTIN per 100 nM oligonucleotide as described by other examples herein. Control oligonucleotides used were ISIS 129686 (SEQ ID NO: 394) and ISIS 129690 (SEQ ID NO: 393). Untreated cells served as controls. Following 16 hours of treatment, RNA was prepared from cells for subsequent real-time PCR analysis.
Human STAT3 mRNA expression levels were quantitated by real-time PCR using primer probe set PPS 199 and gene target quantities were normalized using Ribogreen as described in other examples herein. A “−” or “+” designation in the dose response results indicates a decrease or increase of STAT 3 mRNA expression, respectively, relative to untreated control cells.

[2] = tested on: Human STAT3 mRNA; assay: STAT3 mRNA in A549 cells treated with dsRNAs (duplex antisense compounds), real-time PCR PPS 199 (Table 22); settings: treated 4 hours, harvested 16 hours later, − decrease, + increase vs untreated control
Method: When cells reached 80% confluency, they are treated with duplexed antisense compounds of the invention. For cells grown in 96-well plates, wells are washed once with […] OPTI-MEM-1 reduced-serum medium (Gibco BRL) and then treated with 130 μL of OPTI-MEM-1 containing 12 μg/mL LIPOFECTIN (Gibco BRL) and the desired duplex antisense compound at a final concentration of 200 nM (a ratio of 6 μg/mL LIPOFECTIN per 100 nM duplex antisense compound). After 5 hours of treatment, the medium is replaced with fresh medium. Cells are harvested 16 hours after treatment, at which time RNA is isolated and target reduction measured by RT-PCR.
The compounds in Table 21 were tested for their effects on human STAT3 expression in A549 cells. ISIS 330249 targets the same site as the antisense oligonucleotid ISIS 106734 (SEQ ID NO: 45) and ISIS 330247 targets the same site as the antisense oligonucleotide ISIS 113176 (SEQ ID NO: 115); thus, ISIS 106734 and ISIS 113176 were also tested. A549 cells were treated with oligonucleotide mixed with LIPOFECTIN (Invitrogen Corporation, Carlsbad, Calif.) as described herein. The control oligonucleotide used was ISIS 129698 ([…], SEQ ID NO: 402). Cells were treated with oligonucleotide for 4 hours and harvested an additional 16 hours later. Untreated cells served as a control.
Human STAT3 mRNA expression levels were quantitated by real-time PCR using primer probe set PPS 199 and gene target quantities were normalized using Ribogreen as described in other examples herein. A “−” or “+” designation indicates a decrease or increase of STAT 3 mRNA expression, respectively, relative to untreated control cells. Where present, “N.D.” indicates not determined.

[3] = tested on: Human STAT3 mRNA; assay: Human STAT3 mRNA dose response in T-24 cells, real-time PCR with PPS 199 (Table 18); settings: 16 hours, − decrease, + increase relative to untreated control
Source text: The transitional cell bladder carcinoma cell line T-24 was obtained from the American Type Culture Collection (ATCC) (Manassas, Va.). T-24 cells were routinely cultured in complete McCoy's 5A basal media (Gibco/Life Technologies, Gaithersburg, Md.) supplemented with 10% fetal calf serum (Gibco/Life Technologies, Gaithersburg, Md.), penicillin 100 units per mL, and streptomycin 100 micrograms per mL (Gibco/Life Technologies, Gaithersburg, Md.). Cells were routinely passaged by trypsinization and dilution when they reached 90% confluence. Cells were seeded into 96-well plates (Falcon-Primaria #3872) at a density of 7000 cells/well for use in RT-PCR analysis.
Control oligonucleotides used were ISIS 129695 ([…], SEQ ID NO: 391), ISIS 129694 ([…] SEQ ID NO: 392), ISIS 129690 ([…] SEQ ID NO: 393), ISIS 129686 ([…] SEQ ID NO: 394), ISIS 116847 ([…], SEQ ID NO: 395) and ISIS 113529 ([…] SEQ ID NO: 396). These are universal scrambled control oligonucleotides.
(§1) T-24 cells were treated with 18.75, 37.5, 75, or 150 nM of oligonucleotide mixed with 3 ug/mL LIPOFECTIN per 100 nM oligonucleotide as described by other examples herein. Untreated cells served as controls. Following 16 hours of treatment, RNA was prepared from cells for subsequent real-time PCR analysis.
Human STAT3 mRNA expression levels were quantitated by real-time PCR using primer probe set PPS 199 and gene target quantities were normalized using Ribogreen as described in other examples herein. A “−” or “+” designation indicates a decrease or increase of STAT 3 mRNA expression, respectively, relative to untreated control cells.

[4] = tested on: Human STAT3 mRNA; assay: Human STAT3 mRNA dose response in T-24 cells, real-time PCR with PPS 2033 (Table 19); settings: 16 hours, − decrease, + increase relative to untreated control
Method: The dose-response was repeated in T-24 cells and gene target quantities were measured using a different primer-probe set, called PPS 2033 herein. PPS 2033 comprises probes and primers to human STAT3 were designed to hybridize to a human STAT3 sequence, using published sequence information (incorporated herein as SEQ ID NO: XXX). For PPS 2033 the PCR primers were: forward primer: GAGGCCCGCCCAACA (SEQ ID NO: 397) reverse primer: […] (SEQ ID NO: 398) and the PCR probe was: FAM-CTGCCTAGATCGGC-TAMRA (SEQ ID NO: 399) where FAM is the fluorescent reporter dye and TAMRA is the quencher dye. Gene target quantities obtained by real time RT-PCR are normalized by quantifying total RNA using RiboGreen™ (Molecular Probes, Inc. Eugene, Oreg.). Control oligonucleotides used were ISIS 129695 (SEQ ID NO: 391), ISIS 129694 (SEQ ID NO: 392), ISIS 129690 (SEQ ID NO: 393), ISIS 129686 (SEQ ID NO: 394), ISIS 116847 (SEQ ID NO: 395) and ISIS 113529 (SEQ ID NO: 396).
as §1
Human STAT3 mRNA expression levels were quantitated by real-time PCR using primer probe set PPS 2033 and gene target quantities were normalized using Ribogreen as described in other examples herein. A “−” or “+” designation indicates a decrease or increase of STAT 3 mRNA expression, respectively, relative to untreated control cells.

[5] = tested on: Mouse B16 melanoma cells; assay: Cell number of B16 melanoma cells after antisense treatment; settings: 24 hours after transfection
Method: Mouse B16 melanoma cells were grown in RPMI 1640 (Life Technologies, Inc., Grand Island, N.Y.) medium supplemented with 10% fetal bovine serum, 2 mM L-glutamine, 1 mM sodium pyruvate, 1% MEM nonessential amino acids and 100 IU/ml penicillin/streptomycin.
Cells were treated with ISIS 17152, targeted to mouse STAT3, or the 3-base mismatch control, ISIS 28084 ([…]; SEQ ID NO: 151). Cells were transfected with oligonucleotide using LipofectAMINE PLUSJ reagent (GibcoBRL). Oligonucleotide was pre-complexed with LipofectAMINE PLUSJ by adding the oligonucleotide to 100 μl serum-free RPMI 1640 medium, then 6 μl LipofectAMINE PLUSJ reagent was added, the sample was mixed well and incubated for 15 minutes at room temperature. An additional 4 μl of LipofectAMINE PLUSJ reagent was diluted to 100 μl in serum-free RPMI. This diluted LipofectAMINE PLUSJ was mixed with the pre-complexed oligonucleotide/LipofectAMINE PLUSJ mixture and incubated for 15 minutes at room temperature. 800 μl of serum-free RPMI 1640 was added, and the resulting oligonucleotide-LipofectAMINE PLUSJ-medium mixture (approximately 1 ml) was added to cells in a 6-well plate. After 3 hours incubation, 1 ml of RPMI 1640 supplemened with 20% fetal bovine serum was added. Oligonucleotide concentrations were 200 nM or 300 nM.
24 hours after transfection, cells were counted to determine the effect of antisense treatment on cell death. Cells were harvested at 24 hours post transfection for western blot analysis and at 48 hours post-transfection for Annexin-V staining for apoptosis.

106734 (CATTCTTGGGATTGTTGGTC; all C 5-methyl, all phosphorothioate, sugars by position not given here; further chemistry not fully specified) [compound 106734]
Percent change of STAT3 expression in A549 cells using PPS 199 ([1]; 18.75 nM oligonucleotide): −2%
Percent change of STAT3 expression in A549 cells using PPS 199 ([1]; 37.5 nM oligonucleotide): −16%
Percent change of STAT3 expression in A549 cells using PPS 199 ([1]; 75 nM oligonucleotide): −56%
Percent change of STAT3 expression in A549 cells using PPS 199 ([1]; 150 nM oligonucleotide): −73%
Percent change in STAT3 mRNA expression in A549 cells by duplex antisense compounds ([2]; 12.5 nM oligonucleotide): −5%
Percent change in STAT3 mRNA expression in A549 cells by duplex antisense compounds ([2]; 25 nM oligonucleotide): −5%
Percent change in STAT3 mRNA expression in A549 cells by duplex antisense compounds ([2]; 50 nM oligonucleotide): −40%
Percent change in STAT3 mRNA expression in A549 cells by duplex antisense compounds ([2]; 100 nM oligonucleotide): −56%
Percent change in STAT3 mRNA expression in A549 cells by duplex antisense compounds ([2]; 200 nM oligonucleotide): −67%
Percent change in STAT3 mRNA expression in A549 cells by duplex antisense compounds ([2]; 400 nM oligonucleotide): −77%

129686 (antisense CGTTATTAACCTCCGTTGAA; all phosphorothioate, sugars by position and methylation of C not given here; 2'-MOE wings and deoxy gap) [compound 129686]
Percent change of STAT3 expression using PPS 199 ([3]; 18.75 nM oligonucleotide): +2%
Percent change of STAT3 expression using PPS 199 ([3]; 37.5 nM oligonucleotide): +1%
Percent change of STAT3 expression using PPS 199 ([3]; 75 nM oligonucleotide): −5%
Percent change of STAT3 expression using PPS 199 ([3]; 150 nM oligonucleotide): +1%
Percent change of STAT3 expression using PPS 2033 ([4]; 18.75 nM oligonucleotide): +20%
Percent change of STAT3 expression using PPS 2033 ([4]; 37.5 nM oligonucleotide): +16%
Percent change of STAT3 expression using PPS 2033 ([4]; 75 nM oligonucleotide): +25%
Percent change of STAT3 expression using PPS 2033 ([4]; 150 nM oligonucleotide): +9%
Percent change of STAT3 expression in A549 cells using PPS 199 ([1]; 18.75 nM oligonucleotide): +27%
Percent change of STAT3 expression in A549 cells using PPS 199 ([1]; 37.5 nM oligonucleotide): +23%
Percent change of STAT3 expression in A549 cells using PPS 199 ([1]; 75 nM oligonucleotide): +22%
Percent change of STAT3 expression in A549 cells using PPS 199 ([1]; 150 nM oligonucleotide): +19%

129690 (antisense TTAGAATACGTCGCGTTATG; all phosphorothioate, sugars by position and methylation of C not given here; 2'-MOE wings and deoxy gap) [compound 129690]
Percent change of STAT3 expression using PPS 199 ([3]; 18.75 nM oligonucleotide): +2%
Percent change of STAT3 expression using PPS 199 ([3]; 37.5 nM oligonucleotide): +7%
Percent change of STAT3 expression using PPS 199 ([3]; 75 nM oligonucleotide): +6%
Percent change of STAT3 expression using PPS 199 ([3]; 150 nM oligonucleotide): +8%
Percent change of STAT3 expression using PPS 2033 ([4]; 18.75 nM oligonucleotide): +4%
Percent change of STAT3 expression using PPS 2033 ([4]; 37.5 nM oligonucleotide): +10%
Percent change of STAT3 expression using PPS 2033 ([4]; 75 nM oligonucleotide): +8%
Percent change of STAT3 expression using PPS 2033 ([4]; 150 nM oligonucleotide): +11%
Percent change of STAT3 expression in A549 cells using PPS 199 ([1]; 18.75 nM oligonucleotide): +30%
Percent change of STAT3 expression in A549 cells using PPS 199 ([1]; 37.5 nM oligonucleotide): +27%
Percent change of STAT3 expression in A549 cells using PPS 199 ([1]; 75 nM oligonucleotide): +16%
Percent change of STAT3 expression in A549 cells using PPS 199 ([1]; 150 nM oligonucleotide): +27%

129698 (antisense TTTGATCGAGGTTAGCCGTG; listed as DNA, chemistry not given here) [compound 129698]
Percent change in STAT3 mRNA expression in A549 cells by duplex antisense compounds ([2]; 50 nM oligonucleotide): +41%
Percent change in STAT3 mRNA expression in A549 cells by duplex antisense compounds ([2]; 100 nM oligonucleotide): +42%
Percent change in STAT3 mRNA expression in A549 cells by duplex antisense compounds ([2]; 200 nM oligonucleotide): +1%
Percent change in STAT3 mRNA expression in A549 cells by duplex antisense compounds ([2]; 400 nM oligonucleotide): +22%

AAAAAGAGGCCTGATTGCCC (listed as DNA, chemistry not given here) [ISIS 28084, reference compound]
cell number ([5]; 200 nM, Expt 1): 10.2 × 10^5
cell number ([5]; 200 nM, Expt 2): 5.0 × 10^5
cell number ([5]; 200 nM, Expt 3): 3.5 × 10^5
cell number ([5]; 300 nM, Expt 2): 9.1 × 10^5
cell number ([5]; 300 nM, Expt 3): 3.3 × 10^5
